Results published in patent publication US8952024B2, “Herbicidal pyrimidone derivatives” (E I du Pont de Nemours and Company, priority 2009, dated 2015).
Read-outs that look alike come from different tables or passages of the source.

Columns and labels:
Format in all cases: in vivo
[1] = tested on: barnyardgrass (Echinochloa crus-galli); assay: Test A pre-/postemergence plant response; details: for pest or weed control at 125 g/ha / pest or weed control at 500 g/ha: Echinochloa crus-galli, 240 h, read-out: Plant response rating, Barnyardgrass
Procedure, shortened: (§1)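 Visual injury rating on a 0–100 scale (0 = no effect, 100 = complete control) was made versus untreated controls after about ten days in the greenhouse. Compounds, formulated in a non-phytotoxic solvent mix containing surfactant, were sprayed preemergence onto loam/sand soil and postemergence onto one- to two-leaf plants.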

corn (Zea mays) = assay: Test A pre-/postemergence plant response; details: for Corn plant response rating (crop injury, 0 = no effect, 100 = complete kill) at 125 g/ha / Corn plant response rating (crop injury, 0 = no effect, 100 = complete kill) at 500 g/ha: Zea mays, 240 h
Procedure, shortened: as §1

[2] = tested on: giant foxtail (Setaria faberii); assay: Test A pre-/postemergence plant response; details: for pest or weed control at 125 g/ha / pest or weed control at 500 g/ha: Setaria faberi, 240 h, read-out: Plant response rating, Foxtail, Giant
Procedure, shortened: as §1

[3] = tested on: large crabgrass (Digitaria sanguinalis); assay: Test A pre-/postemergence plant response; details: for pest or weed control at 125 g/ha / pest or weed control at 500 g/ha: Digitaria sanguinalis, 240 h, read-out: Plant response rating, Crabgrass, Large
Procedure, shortened: as §1

[4] = tested on: velvetleaf (Abutilon theophrasti); assay: Test A pre-/postemergence plant response; details: for pest or weed control at 125 g/ha / pest or weed control at 500 g/ha: Abutilon theophrasti, 240 h, read-out: Plant response rating, Velvetleaf
Procedure, shortened: as §1

[5] = tested on: wheat (Triticum aestivum); assay: Test A pre-/postemergence plant response; details: for plant injury at 125 g/ha / plant injury at 500 g/ha: Triticum aestivum, 240 h, read-out: Plant response rating, Wheat
Procedure, shortened: as §1

[6] = tested on: canarygrass (Phalaris minor); assay: Test B postemergence plant response; details: for Canarygrass plant response rating (0 to 100 scale): 62 g ai/ha, postemergence, 0 is no effect, 100 is complete control
Procedure, shortened: (§2)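 Plants at the 1- to 4-leaf stage (2 to 18 cm tall), grown in pots of peat moss/vermiculite medium with wetting agent and starter nutrients, received postemergence applications of test chemicals. After 13 to 15 days in a greenhouse, injury was rated visually against untreated controls on a 0 (no effect) to 100 (complete control) scale.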

[7] = tested on: chickweed (Stellaria media); assay: Test B postemergence plant response; details: for Chickweed plant response rating (0 to 100 scale): 62 g ai/ha, postemergence, 0 is no effect, 100 is complete control
Procedure, shortened: as §2

[8] = tested on: windgrass (Apera spica-venti); assay: Test B postemergence plant response; details: for Windgrass plant response rating (0 to 100 scale): 62 g ai/ha, postemergence, 0 is no effect, 100 is complete control
Procedure, shortened: as §2

[9] = tested on: winter barley (Hordeum vulgare); assay: Test B postemergence plant response; details: for Barley plant response rating (0 to 100 scale): 62 g ai/ha, postemergence, 0 is no effect, 100 is complete control
Procedure, shortened: as §2

[10] = post-emergence, Postemergence, 125 g ai/ha, 0 to 100 scale where 0 is no effect and 100 is complete control
[11] = post-emergence, Postemergence, 500 g ai/ha, 0 to 100 scale, 0 = no effect, 100 = complete control, approx. ten days
[12] = pre-emergence, Preemergence, 125 g ai/ha, 0 to 100 scale, 0 = no effect, 100 = complete control
[13] = pre-emergence, Preemergence, 500 g ai/ha, visual injury, 0 to 100 scale (0 no effect, 100 complete control), approx. ten days
[14] = Postemergence, 125 g ai/ha, 0 to 100 scale where 0 is no effect and 100 is complete control
[15] = Postemergence, 500 g ai/ha, 0 to 100 scale, 0 = no effect, 100 = complete control, approx. ten days
[16] = Preemergence, 125 g ai/ha, 0 to 100 scale, 0 = no effect, 100 = complete control
[17] = Preemergence, 500 g ai/ha, visual injury, 0 to 100 scale (0 no effect, 100 complete control), approx. ten days
[18] = Postemergence, 31 g ai/ha, 0 to 100 scale (0 no effect, 100 complete control)
[19] = Postemergence, 125 g ai/ha, scale 0 to 100 (0 no effect, 100 complete control)
[20] = Postemergence, 250 g ai/ha, scale 0 to 100 (0 no effect, 100 complete control), 13 to 15 days

## O=C1CCCC(O)=C1C(=O)c1cnc(-c2ccccc2)n(C2CCCCC2)c1=O [Compound 128, 3-cyclohexyl-5-[(2-hydroxy-6-oxo-1-cyclohexen-1-yl)carbonyl]-2-phenyl-4(3H)-pyrimidinone]
[1]; [10]
  pest or weed control at 125 g/ha: 100%
[1]; [11]
  pest or weed control at 500 g/ha: 100%
[1]; [12]
  pest or weed control at 125 g/ha: 10%
[1]; [13]
  pest or weed control at 500 g/ha: 100%
Corn (Zea mays); [10]
  Corn plant response rating (crop injury, 0 = no effect, 100 = complete kill) at 125 g/ha: 20%
Corn (Zea mays); [11]
  Corn plant response rating (crop injury, 0 = no effect, 100 = complete kill) at 500 g/ha: 60%
Corn (Zea mays); [12]
  Corn plant response rating (crop injury, 0 = no effect, 100 = complete kill) at 125 g/ha: 0%
Corn (Zea mays); [13]
  Corn plant response rating (crop injury, 0 = no effect, 100 = complete kill) at 500 g/ha: 0%
[2]; [10]
  pest or weed control at 125 g/ha: 90%
[2]; [11]
  pest or weed control at 500 g/ha: 90%
[2]; [12]
  pest or weed control at 125 g/ha: 60%
[2]; [13]
  pest or weed control at 500 g/ha: 90%
[3]; [10]
  pest or weed control at 125 g/ha: 90%
[3]; [11]
  pest or weed control at 500 g/ha: 90%
[3]; [12]
  pest or weed control at 125 g/ha: 80%
[3]; [13]
  pest or weed control at 500 g/ha: 100%
[4]; [10]
  pest or weed control at 125 g/ha: 100%
[4]; [11]
  pest or weed control at 500 g/ha: 100%
[4]; [12]
  pest or weed control at 125 g/ha: 80%
[4]; [13]
  pest or weed control at 500 g/ha: 100%
[5]; [10]
  plant injury at 125 g/ha: 0%
[5]; [11]
  plant injury at 500 g/ha: 20%
[5]; [12]
  plant injury at 125 g/ha: 0%
[5]; [13]
  plant injury at 500 g/ha: 30%
[6]; 13 to 15 days
  Canarygrass plant response rating (0 to 100 scale): 10
[6]; Phalaris minor, post-emergence, 360 h, Postemergence, 31 g ai/ha, 0 to 100 scale (0 no effect, 100 complete control), read-out: Plant response rating, Canarygrass
  pest or weed control at 31 g/ha: 10%
[6]; Phalaris minor, post-emergence, 360 h, Postemergence, 125 g ai/ha, scale 0 to 100 (0 no effect, 100 complete control), read-out: Plant response rating, Canarygrass
  pest or weed control at 125 g/ha: 30%
[6]; Phalaris minor, post-emergence, 360 h, Postemergence, 250 g ai/ha, scale 0 to 100 (0 no effect, 100 complete control), 13 to 15 days, read-out: Plant response rating, Canarygrass
  pest or weed control at 250 g/ha: 30%
[7]; 13 to 15 days
  Chickweed plant response rating (0 to 100 scale): 90
[7]; Stellaria media, post-emergence, 360 h, Postemergence, 31 g ai/ha, 0 to 100 scale (0 no effect, 100 complete control), read-out: Plant response rating, Chickweed
  pest or weed control at 31 g/ha: 90%
[7]; Stellaria media, post-emergence, 360 h, Postemergence, 125 g ai/ha, scale 0 to 100 (0 no effect, 100 complete control), read-out: Plant response rating, Chickweed
  pest or weed control at 125 g/ha: 95%
[7]; Stellaria media, post-emergence, 360 h, Postemergence, 250 g ai/ha, scale 0 to 100 (0 no effect, 100 complete control), 13 to 15 days, read-out: Plant response rating, Chickweed
  pest or weed control at 250 g/ha: 100%
[8]; 13 to 15 days
  Windgrass plant response rating (0 to 100 scale): 65
[8]; Apera spica-venti, post-emergence, 360 h, Postemergence, 31 g ai/ha, 0 to 100 scale (0 no effect, 100 complete control), read-out: Plant response rating, Windgrass
  pest or weed control at 31 g/ha: 50%
[8]; Apera spica-venti, post-emergence, 360 h, Postemergence, 125 g ai/ha, scale 0 to 100 (0 no effect, 100 complete control), read-out: Plant response rating, Windgrass
  pest or weed control at 125 g/ha: 70%
[8]; Apera spica-venti, post-emergence, 360 h, Postemergence, 250 g ai/ha, scale 0 to 100 (0 no effect, 100 complete control), 13 to 15 days, read-out: Plant response rating, Windgrass
  pest or weed control at 250 g/ha: 85%
[9]; 13 to 15 days
  Barley plant response rating (0 to 100 scale): 0
[9]; Hordeum vulgare, post-emergence, Postemergence, 31 g ai/ha, 0 to 100 scale (0 no effect, 100 complete control), read-out: Plant response rating, Barley
  plant injury at 31 g/ha: 0%
[9]; Hordeum vulgare, post-emergence, Postemergence, 125 g ai/ha, scale 0 to 100 (0 no effect, 100 complete control), read-out: Plant response rating, Barley
  plant injury at 125 g/ha: 0%
[9]; Hordeum vulgare, post-emergence, Postemergence, 250 g ai/ha, scale 0 to 100 (0 no effect, 100 complete control), 13 to 15 days, read-out: Plant response rating, Barley
  plant injury at 250 g/ha: 5%

## O=C1CCCC(O)=C1C(=O)c1cnc(-c2ccccc2)n(C2CCOCC2)c1=O [Compound 129]
[1]; [14]
  Plant response rating, Barnyardgrass: 90
[1]; [15]
  Plant response rating, Barnyardgrass: 100
[1]; [16]
  Plant response rating, Barnyardgrass: 30
[1]; [17]
  Plant response rating, Barnyardgrass: 100
Corn (Zea mays); [14]
  Plant response rating, Corn: 20
Corn (Zea mays); [15]
  Plant response rating, Corn: 50
Corn (Zea mays); [16]
  Plant response rating, Corn: 0
Corn (Zea mays); [17]
  Plant response rating, Corn: 0
[2]; [14]
  Plant response rating, Foxtail, Giant: 90
[2]; [15]
  Plant response rating, Foxtail, Giant: 90
[2]; [16]
  Plant response rating, Foxtail, Giant: 40
[2]; [17]
  Plant response rating, Foxtail, Giant: 80
[3]; [14]
  Plant response rating, Crabgrass, Large: 90
[3]; [15]
  Plant response rating, Crabgrass, Large: 90
[3]; [16]
  Plant response rating, Crabgrass, Large: 70
[3]; [17]
  Plant response rating, Crabgrass, Large: 90
[4]; [14]
  Plant response rating, Velvetleaf: 100
[4]; [15]
  Plant response rating, Velvetleaf: 100
[4]; [16]
  Plant response rating, Velvetleaf: 80
[4]; [17]
  Plant response rating, Velvetleaf: 90
[5]; [14]
  Plant response rating, Wheat: 0
[5]; [15]
  Plant response rating, Wheat: 20
[5]; [16]
  Plant response rating, Wheat: 0
[5]; [17]
  Plant response rating, Wheat: 0
[6]; 13 to 15 days
  Canarygrass plant response rating (0 to 100 scale): 0
[6]; [18]
  Plant response rating, Canarygrass: 0
[6]; [19]
  Plant response rating, Canarygrass: 0
[6]; [20]
  Plant response rating, Canarygrass: 0
[7]; 13 to 15 days
  Chickweed plant response rating (0 to 100 scale): 85
[7]; [18]
  Plant response rating, Chickweed: 85
[7]; [19]
  Plant response rating, Chickweed: 90
[7]; [20]
  Plant response rating, Chickweed: 100
[8]; 13 to 15 days
  Windgrass plant response rating (0 to 100 scale): 60
[8]; [18]
  Plant response rating, Windgrass: 45
[8]; [19]
  Plant response rating, Windgrass: 80
[8]; [20]
  Plant response rating, Windgrass: 85
[9]; 13 to 15 days
  Barley plant response rating (0 to 100 scale): 0
[9]; [18]
  Plant response rating, Barley: 0
[9]; [19]
  Plant response rating, Barley: 0
[9]; [20]
  Plant response rating, Barley: 0
